Measurements as given in paper PMC406516 (BMC Clinical Pharmacology, 2004).

How the values were obtained:
[1] = target: Pharmaceutical-grade albumin Baxter/Immuno (Homo sapiens, UniProt P02768)
[2] = target: Pharmaceutical-grade albumin Pharmacia & Upjohn (Homo sapiens, UniProt P02768)
[3] = target: Pharmaceutical-grade albumin Octapharma (Homo sapiens, UniProt P02768); assay: Drug binding by ultrafiltration in pharmaceutical-grade albumin from Octapharma; details: for n1 (specific binding sites): Final product
Pharmaceutical-grade albumin Octapharma, sequence (P02768 25-609): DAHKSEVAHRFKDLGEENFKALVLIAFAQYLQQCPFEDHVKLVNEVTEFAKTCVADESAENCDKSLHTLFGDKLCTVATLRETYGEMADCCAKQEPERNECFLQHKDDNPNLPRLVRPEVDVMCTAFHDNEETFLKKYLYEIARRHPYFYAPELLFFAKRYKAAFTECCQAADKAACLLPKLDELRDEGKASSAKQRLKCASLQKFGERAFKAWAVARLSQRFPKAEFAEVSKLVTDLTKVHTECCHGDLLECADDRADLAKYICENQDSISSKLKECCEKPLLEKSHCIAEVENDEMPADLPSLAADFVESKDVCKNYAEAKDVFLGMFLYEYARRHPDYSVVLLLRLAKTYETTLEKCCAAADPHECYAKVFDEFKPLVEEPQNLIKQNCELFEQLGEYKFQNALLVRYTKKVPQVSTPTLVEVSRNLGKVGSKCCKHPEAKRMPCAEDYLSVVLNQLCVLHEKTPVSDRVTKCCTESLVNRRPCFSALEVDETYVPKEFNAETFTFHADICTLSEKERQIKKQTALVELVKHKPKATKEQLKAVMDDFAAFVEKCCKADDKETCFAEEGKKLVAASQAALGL

[4] = target: albumin solutions from Baxter/Immuno, Octapharma, and Pharmacia & Upjohn (Homo sapiens, UniProt P02768)
albumin solutions from Baxter/Immuno, Octapharma, and Pharmacia & Upjohn, sequence (P02768 25-609): as above

Human serum = Human serum (Homo sapiens, UniProt P02768); assay: Drug binding by ultrafiltration in native human serum
Human serum, sequence (P02768 25-609): as above

[5] = target: in-process albumin (Octapharma, before addition of stabilisers and final heating) (Homo sapiens, UniProt P02768); assay: Drug binding by ultrafiltration in in-process albumin from Octapharma; details: mean (SD), 5 experiments
in-process albumin (Octapharma, before addition of stabilisers and final heating), sequence (P02768 25-609): as above

[6] = target: defatted human serum albumin (Sigma albumin) (Homo sapiens, UniProt P02768); assay: Drug binding by ultrafiltration in Sigma albumin solution; details: isolated protein, pH 7.4
defatted human serum albumin (Sigma albumin), sequence (P02768 25-609): as above

[7] = target: Sigma albumin and native human serum (Homo sapiens, UniProt P02768); details: relative to K1 of naproxen; summary of Table 2
Sigma albumin and native human serum, sequence (P02768 25-609): as above

albumin = details: cited from earlier work
[8] = Baxter/Immuno albumin 0.615 mmol/L, Scatchard, mean (SD), 5 experiments
[9] = Pharmacia & Upjohn albumin 0.615 mmol/L, Scatchard, mean (SD), 5 experiments
[10] = charcoal treated, mean (SD), 5 experiments
[11] = Octapharma albumin 0.615 mmol/L, Scatchard, mean (SD), 5 experiments
[12] = human serum, Scatchard, mean (SD), 5 experiments
[13] = human, isolated protein, pH 7.4

Pharmaceutical-grade albumin Baxter/Immuno, sequence (P02768 25-609): as above
Pharmaceutical-grade albumin Pharmacia & Upjohn, sequence (P02768 25-609): as above

Question: Which “Non Specific binding n2 (number of binding sites)” value (“Non Specific binding n2” for short) [1, 8] does the source give for COc1ccc2cc([C@H](C)C(=O)O)ccc2c1 [Naproxen, naproxen] here?
Answer: 3.8 (0.2)

Question: What about the “Non Specific binding n2” value [2, 9] of the same compound?
Answer: 3.8 (0.3)

Question: And the “n1 (specific binding sites)” value [3, 10]?
Answer: 1.1 (0.1)

Question: And the “n1 (specific binding sites)” value ([3]; charcoal treated, mean (SD), 5 experiments, listed as naproxen)?
Answer: 1.1 ± 0.1

Question: And the “Non Specific binding n2” value [3, 11]?
Answer: 4.0 (0.3)

Question: What about the specific binding ([4]; albumin solutions from Baxter/Immuno, Octapharma, and Pharmacia & Upjohn) of the same compound?
Answer: abolished

Question: And the “Non Specific binding n2” value (Human serum; [12])?
Answer: 3.9 (0.2)

Question: What about the “Specific binding n1 (number of binding sites)” value (“Specific binding n1” for short) (Human serum; [12]) of the same compound?
Answer: 1.0 (0.1)

Question: Which “n1 (specific binding sites)” value ([5]; charcoal treated) does the source give for C[C@H]1O[C@@H](O[C@H]2[C@@H](O)C[C@H](O[C@H]3[C@@H](O)C[C@H](O[C@H]4CC[C@@]5(C)[C@H](CC[C@@H]6[C@@H]5CC[C@]5(C)[C@@H](C7=CC(=O)OC7)CC[C@]65O)C4)O[C@@H]3C)O[C@@H]2C)C[C@H](O)[C@@H]1O [Digitoxin, digitoxin] here?
Answer: 0.8 (0.03)

Question: And the “n1 (specific binding sites)” value ([5]; not charcoal treated)?
Answer: 0.8 (0.03)

Question: And the “Specific binding n1” value [1, 8]?
Answer: 1.1 (0.1)

Question: What about the fraction unbound at 30 min [1, 13] of the same compound?
Answer: 0.111

Question: What about the “Specific binding n1” value [2, 9] of the same compound?
Answer: 1.4 (0.3)

Question: And the fraction unbound at 30 min [2, 13]?
Answer: 0.115

Question: What about the “n1 (specific binding sites)” value [3, 10] of the same compound?
Answer: 1.3 (0.2)

Question: What about the “n1 (specific binding sites)” value ([3]; not charcoal treated, mean (SD), 5 experiments) of the same compound?
Answer: 1.1 (0.1)

Question: And the “Specific binding n1” value [3, 11]?
Answer: 0.9 (0.03)

Question: What about the fraction unbound at 30 min [3, 13] of the same compound?
Answer: 0.1

Question: And the “free fraction higher than in native human serum and Sigma albumin” value ([4]; pharmaceutical-grade albumins versus native human serum and Sigma albumin)?
Answer: ~2 times

Question: And the fraction unbound at 30 min [6]?
Answer: 0.051

Question: What about the “K1 higher than that of naproxen” value [7] of the same compound?
Answer: ~100 times

Question: And the albumin-bound (albumin)?
Answer: more than 95%

Question: What about the “Specific binding n1” value (Human serum; [12]) of the same compound?
Answer: 1.8 (0.5)

Question: What about the fraction unbound at 30 min (Human serum; human, serum, pH 7.4) of the same compound?
Answer: 0.049
